According to ChEMBL document CHEMBL1909046, “DrugMatrix in vitro pharmacology data”:
pIC50, pKi: −log10 of the molar value.

Biological target: Sodium-dependent noradrenaline transporter (Homo sapiens, UniProt P23975)
Assay: DRUGMATRIX: Norepinephrine Transporter radioligand binding (ligand: [125I] RTI-55)
Assay type: cell membranes, MDCK, Membrane
Conditions: Not Active = under 50% inhibition at 10 µM; read-out: IC50

Chain of Sodium-dependent noradrenaline transporter (P23975 whole entry): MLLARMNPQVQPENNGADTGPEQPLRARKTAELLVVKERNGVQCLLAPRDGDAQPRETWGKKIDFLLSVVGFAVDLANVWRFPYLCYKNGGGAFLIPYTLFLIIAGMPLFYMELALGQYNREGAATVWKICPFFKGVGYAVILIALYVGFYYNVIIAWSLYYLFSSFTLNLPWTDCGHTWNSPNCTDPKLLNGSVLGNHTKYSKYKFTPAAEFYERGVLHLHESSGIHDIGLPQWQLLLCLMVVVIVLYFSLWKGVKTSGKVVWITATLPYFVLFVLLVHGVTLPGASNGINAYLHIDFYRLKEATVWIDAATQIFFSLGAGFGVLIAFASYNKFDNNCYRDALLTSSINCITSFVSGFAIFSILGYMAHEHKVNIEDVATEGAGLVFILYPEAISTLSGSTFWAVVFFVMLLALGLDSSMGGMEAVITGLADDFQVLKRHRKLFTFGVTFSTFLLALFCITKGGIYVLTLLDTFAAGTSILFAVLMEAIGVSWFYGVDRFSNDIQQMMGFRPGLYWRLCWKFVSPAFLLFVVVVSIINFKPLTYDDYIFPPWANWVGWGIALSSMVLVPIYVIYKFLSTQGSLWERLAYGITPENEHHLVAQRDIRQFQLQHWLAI

Structure (SMILES) | pIC50
Fc1ccc(C(c2ccc(F)cc2)N2CCN(C/C=C/c3ccccc3)CC2)cc1 [FLUNARIZINE] | 5.87

Same assay, conditions: Not Active = under 50% inhibition at 10 µM; read-out: Ki

Structure (SMILES) | pKi
Fc1ccc(C(c2ccc(F)cc2)N2CCN(C/C=C/c3ccccc3)CC2)cc1 [FLUNARIZINE] | 5.88

Same assay, conditions: mdck; Not Active = under 50% inhibition at 10 µM

Structure (SMILES) | IC50
Cc1c(C)c2c(c(C)c1O)CCC(C)(CN1CCN(c3cc(N4CCCC4)nc(N4CCCC4)n3)CC1)O2 (stereo not drawn) | Not Active
CC(C)Cc1ccc([C@@H](C)C(=O)O)cc1 [(R)-IBUPROPHEN] | Not Active
N#Cc1ccc(C(c2ccc(C#N)cc2)n2cncn2)cc1 [LETROZOLE] | Not Active
CCN(CC)CC(=O)Nc1c(C)cccc1C [LIDOCAINE] | Not Active
COc1c2occc2cc2ccc(=O)oc12 [METHOXSALEN] | Not Active
NC(=O)N1C(=O)/C(=C(\O)c2cccs2)c2cc(Cl)ccc21 [TENIDAP] | Not Active
CCCCNc1ccc(C(=O)OCCN(C)C)cc1 [TETRACAINE] | Not Active
O=C(Nc1ccc(Br)cc1)c1cc(Br)cc(Br)c1O [TRIBROMSALAN] | Not Active

Biological target: T1, Substance-K receptor (Homo sapiens, UniProt P21452); note: in other assays of this panel Not Active means under 50% inhibition at 10 µM
T1 sequence (P21452 whole entry): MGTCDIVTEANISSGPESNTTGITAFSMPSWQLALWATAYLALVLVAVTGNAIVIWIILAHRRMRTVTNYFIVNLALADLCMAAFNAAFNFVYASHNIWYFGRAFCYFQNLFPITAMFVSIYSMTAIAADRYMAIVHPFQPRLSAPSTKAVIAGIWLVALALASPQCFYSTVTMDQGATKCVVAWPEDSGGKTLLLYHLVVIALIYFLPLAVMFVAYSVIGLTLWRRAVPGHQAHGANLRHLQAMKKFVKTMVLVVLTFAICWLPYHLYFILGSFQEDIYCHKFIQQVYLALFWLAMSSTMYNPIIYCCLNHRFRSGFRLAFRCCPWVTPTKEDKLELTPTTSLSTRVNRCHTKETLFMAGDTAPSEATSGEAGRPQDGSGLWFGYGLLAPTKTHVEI
Assay: not given
Assay type: cell membranes, CHO, Membrane
Conditions: cho

Structure (SMILES) | IC50
Cc1c(C)c2c(c(C)c1O)CCC(C)(CN1CCN(c3cc(N4CCCC4)nc(N4CCCC4)n3)CC1)O2 (stereo not drawn) | Not Active
COc1ccc(CCN(C)CCCC(C#N)(c2ccc(OC)c(OC)c2)C(C)C)cc1OC (stereo not drawn) | Not Active
CC(C)Cc1ccc([C@@H](C)C(=O)O)cc1 [(R)-IBUPROPHEN] | Not Active
CN(C)CCOC(c1ccccc1)c1ccccc1 [DIPHENHYDRAMINE] | Not Active
Fc1ccc(C(c2ccc(F)cc2)N2CCN(C/C=C/c3ccccc3)CC2)cc1 [FLUNARIZINE] | Not Active
CNCCC(Oc1ccc(C(F)(F)F)cc1)c1ccccc1 (stereo not drawn) [FLUOXETINE] | Not Active
CC(C)Oc1ccc2c(=O)c(-c3ccccc3)coc2c1 [IPRIFLAVONE] | Not Active
N#Cc1ccc(C(c2ccc(C#N)cc2)n2cncn2)cc1 [LETROZOLE] | Not Active
CCN(CC)CC(=O)Nc1c(C)cccc1C [LIDOCAINE] | Not Active
COc1c2occc2cc2ccc(=O)oc12 [METHOXSALEN] | Not Active
CN[C@H]1CC[C@@H](c2ccc(Cl)c(Cl)c2)c2ccccc21 [SERTRALINE] | Not Active
NC(=O)N1C(=O)/C(=C(\O)c2cccs2)c2cc(Cl)ccc21 [TENIDAP] | Not Active
CCCCNc1ccc(C(=O)OCCN(C)C)cc1 [TETRACAINE] | Not Active
O=C(Nc1ccc(Br)cc1)c1cc(Br)cc(Br)c1O [TRIBROMSALAN] | Not Active

Same assay, conditions: read-out: IC50

Structure (SMILES) | pIC50
Clc1ccc(COC(Cn2ccnc2)c2ccc(Cl)cc2Cl)cc1 (stereo not drawn) [ECONAZOLE] | 5.22
CCN(CC)CCOc1ccc(/C(=C(/Cl)c2ccccc2)c2ccccc2)cc1 [ENCLOMIPHENE] | 5.34

Same assay, conditions: read-out: Ki

Structure (SMILES) | pKi
Clc1ccc(COC(Cn2ccnc2)c2ccc(Cl)cc2Cl)cc1 (stereo not drawn) [ECONAZOLE] | 5.70
CCN(CC)CCOc1ccc(/C(=C(/Cl)c2ccccc2)c2ccccc2)cc1 [ENCLOMIPHENE] | 5.82

Biological target: Prostaglandin G/H synthase 1 (Homo sapiens, UniProt P23219);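 note: inhibition of COX-1 enzyme activity, with arachidonic acid supplied as substrate; in other assays of this panel Not Active means under 50% inhibition at 10 µM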
Assay: biochemical
Assay type: tissue-based, Platelet
Conditions: platelet

Chain of Prostaglandin G/H synthase 1 (P23219 whole entry): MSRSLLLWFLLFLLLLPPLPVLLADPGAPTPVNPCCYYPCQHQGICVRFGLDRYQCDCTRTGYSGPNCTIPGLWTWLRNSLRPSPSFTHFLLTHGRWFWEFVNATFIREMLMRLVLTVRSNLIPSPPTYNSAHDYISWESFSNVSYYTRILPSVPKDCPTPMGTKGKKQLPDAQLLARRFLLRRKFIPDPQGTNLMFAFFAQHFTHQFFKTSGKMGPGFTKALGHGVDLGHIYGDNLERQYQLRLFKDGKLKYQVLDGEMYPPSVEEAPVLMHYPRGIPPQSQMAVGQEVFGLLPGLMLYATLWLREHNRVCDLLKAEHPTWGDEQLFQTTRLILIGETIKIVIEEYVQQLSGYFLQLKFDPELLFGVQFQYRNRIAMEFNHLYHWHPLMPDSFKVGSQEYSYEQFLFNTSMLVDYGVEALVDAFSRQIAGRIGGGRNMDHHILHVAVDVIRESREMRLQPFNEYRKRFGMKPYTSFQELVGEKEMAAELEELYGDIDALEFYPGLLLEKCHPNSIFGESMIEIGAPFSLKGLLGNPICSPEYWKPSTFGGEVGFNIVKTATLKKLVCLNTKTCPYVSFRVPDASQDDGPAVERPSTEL

Structure (SMILES) | IC50
Cc1c(C)c2c(c(C)c1O)CCC(C)(CN1CCN(c3cc(N4CCCC4)nc(N4CCCC4)n3)CC1)O2 (stereo not drawn) | Not Active
COc1ccc(CCN(C)CCCC(C#N)(c2ccc(OC)c(OC)c2)C(C)C)cc1OC (stereo not drawn) | Not Active
CC(C)Cc1ccc([C@@H](C)C(=O)O)cc1 [(R)-IBUPROPHEN] | Not Active
CN(C)CCOC(c1ccccc1)c1ccccc1 [DIPHENHYDRAMINE] | Not Active
Clc1ccc(COC(Cn2ccnc2)c2ccc(Cl)cc2Cl)cc1 (stereo not drawn) [ECONAZOLE] | Not Active
Fc1ccc(C(c2ccc(F)cc2)N2CCN(C/C=C/c3ccccc3)CC2)cc1 [FLUNARIZINE] | Not Active
CNCCC(Oc1ccc(C(F)(F)F)cc1)c1ccccc1 (stereo not drawn) [FLUOXETINE] | Not Active
N#Cc1ccc(C(c2ccc(C#N)cc2)n2cncn2)cc1 [LETROZOLE] | Not Active
CCN(CC)CC(=O)Nc1c(C)cccc1C [LIDOCAINE] | Not Active
COc1c2occc2cc2ccc(=O)oc12 [METHOXSALEN] | Not Active
CN[C@H]1CC[C@@H](c2ccc(Cl)c(Cl)c2)c2ccccc21 [SERTRALINE] | Not Active
CCCCNc1ccc(C(=O)OCCN(C)C)cc1 [TETRACAINE] | Not Active

Same assay, conditions: read-out: IC50

Structure (SMILES) | pIC50
CCN(CC)CCOc1ccc(/C(=C(/Cl)c2ccccc2)c2ccccc2)cc1 [ENCLOMIPHENE] | 6.46
NC(=O)N1C(=O)/C(=C(\O)c2cccs2)c2cc(Cl)ccc21 [TENIDAP] | 7.26
O=C(Nc1ccc(Br)cc1)c1cc(Br)cc(Br)c1O [TRIBROMSALAN] | 5.69

Biological target: T2, Polyunsaturated fatty acid lipoxygenase ALOX15 (Oryctolagus cuniculus, UniProt P12530);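 note: inhibition of 15-lipoxygenase enzyme activity measured with linoleic acid as the substrate; in other assays of this panel Not Active means under 50% inhibition at 10 µM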
T2 sequence (P12530 whole entry): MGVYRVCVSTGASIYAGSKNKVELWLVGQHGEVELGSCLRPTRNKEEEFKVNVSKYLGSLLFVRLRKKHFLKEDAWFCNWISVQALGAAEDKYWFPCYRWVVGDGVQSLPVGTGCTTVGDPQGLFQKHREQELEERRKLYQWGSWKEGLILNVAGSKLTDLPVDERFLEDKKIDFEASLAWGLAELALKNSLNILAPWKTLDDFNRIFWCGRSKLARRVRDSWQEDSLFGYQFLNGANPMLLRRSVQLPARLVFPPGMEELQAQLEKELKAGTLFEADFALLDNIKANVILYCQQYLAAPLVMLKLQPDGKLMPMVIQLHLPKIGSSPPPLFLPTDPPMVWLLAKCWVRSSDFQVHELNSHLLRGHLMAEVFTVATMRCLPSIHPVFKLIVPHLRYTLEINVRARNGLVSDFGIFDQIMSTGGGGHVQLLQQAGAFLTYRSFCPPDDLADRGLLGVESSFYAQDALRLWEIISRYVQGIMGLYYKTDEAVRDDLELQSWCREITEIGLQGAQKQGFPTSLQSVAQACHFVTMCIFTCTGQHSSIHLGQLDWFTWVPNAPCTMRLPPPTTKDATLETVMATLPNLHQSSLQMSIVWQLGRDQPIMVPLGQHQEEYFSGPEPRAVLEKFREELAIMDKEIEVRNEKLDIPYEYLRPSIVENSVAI
Assay: biochemical
Assay type: tissue-based, Reticulocytes
Conditions: read-out: IC50

Structure (SMILES) | pIC50
Cc1c(C)c2c(c(C)c1O)CCC(C)(CN1CCN(c3cc(N4CCCC4)nc(N4CCCC4)n3)CC1)O2 (stereo not drawn) | 5.25

Same assay, conditions: reticulocytes

Structure (SMILES) | IC50
COc1ccc(CCN(C)CCCC(C#N)(c2ccc(OC)c(OC)c2)C(C)C)cc1OC (stereo not drawn) | Not Active
CC(C)Cc1ccc([C@@H](C)C(=O)O)cc1 [(R)-IBUPROPHEN] | Not Active
CN(C)CCOC(c1ccccc1)c1ccccc1 [DIPHENHYDRAMINE] | Not Active
Clc1ccc(COC(Cn2ccnc2)c2ccc(Cl)cc2Cl)cc1 (stereo not drawn) [ECONAZOLE] | Not Active
CCN(CC)CCOc1ccc(/C(=C(/Cl)c2ccccc2)c2ccccc2)cc1 [ENCLOMIPHENE] | Not Active
Fc1ccc(C(c2ccc(F)cc2)N2CCN(C/C=C/c3ccccc3)CC2)cc1 [FLUNARIZINE] | Not Active
CNCCC(Oc1ccc(C(F)(F)F)cc1)c1ccccc1 (stereo not drawn) [FLUOXETINE] | Not Active
CC(C)Oc1ccc2c(=O)c(-c3ccccc3)coc2c1 [IPRIFLAVONE] | Not Active
N#Cc1ccc(C(c2ccc(C#N)cc2)n2cncn2)cc1 [LETROZOLE] | Not Active
CCN(CC)CC(=O)Nc1c(C)cccc1C [LIDOCAINE] | Not Active
COc1c2occc2cc2ccc(=O)oc12 [METHOXSALEN] | Not Active
CN[C@H]1CC[C@@H](c2ccc(Cl)c(Cl)c2)c2ccccc21 [SERTRALINE] | Not Active
NC(=O)N1C(=O)/C(=C(\O)c2cccs2)c2cc(Cl)ccc21 [TENIDAP] | Not Active
CCCCNc1ccc(C(=O)OCCN(C)C)cc1 [TETRACAINE] | Not Active
O=C(Nc1ccc(Br)cc1)c1cc(Br)cc(Br)c1O [TRIBROMSALAN] | Not Active

Biological target: T3, Cytochrome P450 1A2 (Homo sapiens, UniProt P05177); note: in other assays of this panel Not Active means under 50% inhibition at 10 µM
T3 sequence (P05177 whole entry): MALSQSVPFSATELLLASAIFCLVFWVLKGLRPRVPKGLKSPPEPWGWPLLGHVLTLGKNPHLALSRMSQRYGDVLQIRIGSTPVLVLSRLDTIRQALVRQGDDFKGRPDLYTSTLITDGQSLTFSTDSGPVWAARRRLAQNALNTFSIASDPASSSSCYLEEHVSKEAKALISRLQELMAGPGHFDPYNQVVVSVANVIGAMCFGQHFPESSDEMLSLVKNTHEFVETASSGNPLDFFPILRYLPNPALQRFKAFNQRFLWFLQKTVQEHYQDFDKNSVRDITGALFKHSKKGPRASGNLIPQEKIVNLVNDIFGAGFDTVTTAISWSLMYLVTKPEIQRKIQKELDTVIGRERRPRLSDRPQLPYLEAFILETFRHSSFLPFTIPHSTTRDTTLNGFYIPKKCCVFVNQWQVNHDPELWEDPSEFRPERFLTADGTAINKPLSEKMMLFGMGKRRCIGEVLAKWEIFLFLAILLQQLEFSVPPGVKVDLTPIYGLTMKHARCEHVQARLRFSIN
Assay: not given
Conditions: bti-tn-5b1-4

Structure (SMILES) | IC50 | Ki
COc1ccc(CCN(C)CCCC(C#N)(c2ccc(OC)c(OC)c2)C(C)C)cc1OC (stereo not drawn) | Not Active | Not Active
CC(C)Cc1ccc([C@@H](C)C(=O)O)cc1 [(R)-IBUPROPHEN] | Not Active | Not Active
CCN(CC)CCOc1ccc(/C(=C(/Cl)c2ccccc2)c2ccccc2)cc1 [ENCLOMIPHENE] | Not Active | Not Active
Fc1ccc(C(c2ccc(F)cc2)N2CCN(C/C=C/c3ccccc3)CC2)cc1 [FLUNARIZINE] | Not Active | Not Active
CNCCC(Oc1ccc(C(F)(F)F)cc1)c1ccccc1 (stereo not drawn) [FLUOXETINE] | Not Active | Not Active
CC(C)Oc1ccc2c(=O)c(-c3ccccc3)coc2c1 [IPRIFLAVONE] | Not Active | Not Active
CN[C@H]1CC[C@@H](c2ccc(Cl)c(Cl)c2)c2ccccc21 [SERTRALINE] | Not Active | Not Active
